{"source": "patent US10907219B2", "about": "“Compositions and methods for controlling cellular function” (STC.UNM, priority 2014, dated 2021)", "key": {"[1]": {"test_system": "EGFP-PYL and NES-ABI in CHO cells", "assay": "Live cell confocal EGFP nuclear export", "assay_type": "cell-based", "conditions": "10 μM, 405 nm irradiation, followed 20 minutes", "procedure": "(§1) To test the uncaging process in live cell experiments, EGFP nuclear export experiments were carried out by transfecting CHO cells with EGFP-PYL and NES-ABI constructs. The cells were then either treated with 10 μM ABA-DEACM and with or without 405 nm light irradiation under a confocal microscope, or with no drug but irradiated. The subcellular location of EGFP was followed for 20 minutes after irradiation. […] We also tested the use of ABA-DEACM in live cell imaging to induce cell morphology changes. We transfected CHO cells in a culture chamber with myr-ABI and EGFP-PYLTiam1 constructs.\nLive cell confocal microscopy irradiation and imaging: EGFP fluorescence of CHO cells was detected with an LSM 510 Meta confocal mounted on an AxioObserver inverted microscope (Carl Zeiss AG, Oberkochen, Germany). […] To image, fluorescence was excited with the 488 nm line of an argon laser (30 mW) with laser power attenuated to 50%. […]\nImage analysis of fluorescence intensity in nuclear export experiments: Generated images were analyzed for fluorescence intensity by using Slide Book v.6 software (Intelligent Imaging Innovations, Inc., Denver, Colo.). Equal sized regions of interest were analyzed from the cytoplasm and the nucleus to compare fluorescent intensity of EGFP in three cells for each condition from images taken every 20 seconds for a duration of 20 minutes."}, "[2]": {"test_system": "myr-ABI and EGFP-PYL-Tiam1 in CHO cells", "assay": "Live cell imaging of cytoskeletal remodeling", "assay_type": "cell-based", "conditions": "405 nm irradiation", "procedure": "as §1\nLive cell confocal microscopy irradiation and imaging: EGFP fluorescence of CHO cells was detected with an LSM 510 Meta confocal mounted on an AxioObserver inverted microscope (Carl Zeiss AG, Oberkochen, Germany). ABA-DEACM was uncaged by using a 405 nm UV laser (25 mW) set to 25% power for approximately three seconds. To image, fluorescence was excited with the 488 nm line of an argon laser (30 mW) with laser power attenuated to 50%. EGFP emission was collected with a FITC filter. Live cells were plated in 8-well coverslip-bottom culture chambers in medium (200 μL) and maintained at 37° C. with an objective lens heater (Bioptechs Inc., Butler, Pa.). Culture medium was exchanged with OptiMEM (GIBCO, Life Technologies, Carlsbad, Calif.) with caged ABA or no drug prior to imaging. Images were acquired every 10 to 20 seconds in different experiments with a 63×5/1.2 NA water objective."}, "[3]": {"assay": "Reaction selectivity of ABA-HP versus different molecules (HPLC)", "assay_type": "physicochemical", "conditions": "four hours", "procedure": "Reaction selectivity versus different molecules: 100 μM ABA-HP was incubated with 100 μM (1 eq) of different molecules in 50% HEPES/DMSO (pH 7.4) at 37° C. for 4 hours and detected by HPLC. H2S was generated by 100 μM Na2S solution in HEPES buffer, which can slowly release H2S. .OH and .OtBu were generated by reaction of Fe^2+ with H2O2 or tert-butyl hydroperoxide (TBHP), respectively. HPLC condition was the same as the stability and reactivity test of ABA-HP."}, "[4]": {"assay": "Chemical stability of ABA-HP in HEPES/DMSO (HPLC)", "assay_type": "physicochemical", "conditions": "1 mM, 50% HEPES/DMSO pH 7.4, 37° C., 24 hours", "procedure": "(§2) Chemical stability and reactivity of ABA-HP towards H2O2: ABA-HP chemical stability: 1 mM ABA-HP (in DMSO) was incubated in 50% HEPES/DMSO (10 mM HEPES, pH 7.4) for 24 hours at 37° C. HPLC results were detected at 0 minutes, 20 minutes, 40 minutes, 60 minutes, 80 minutes, 100 minutes, 120 minutes, 240 minutes, and 24 hours. ABA-HP reactivity towards H2O2: 1 mM ABA-HP was incubated with 5 mM (5 eq) H2O2 in 50% HEPES/DMSO (10 mM HEPES, pH 7.4) at 37° C. HPLC results were detected at 0 minutes, 20 minutes, 40 minutes, 80 minutes, 100 minutes, 120 minutes, and 240 minutes (FIGS. 1c, 4a and 4b). 100 mM H2O2 was diluted with 11 μL of 30% (10 M) stock H2O2 (VWR) and 989 μL of ddH2O. […] HPLC chromatograms were acquired using an ULTIMATE 3000 LC System (Thermo Fisher Scientific, Waltham, Mass.) with ACCLAIM 120 Å, C18, 3 μm analytical (4.6×100 mm) column (Thermo Fisher Scientific, Waltham, Mass.). Chromatographic conditions: eluent A: 0.1% v/v TFA in water; eluent B: 0.1% v/v TFA in acetonitrile. ABA in ethanol or ABA-HP in DMSO was eluted at a flow rate of 0.750 ml/min monitored at a wavelength of 260 nm. 0-12 min (linear): 95% A, 5% B to 5% A, 95% B; 12-15 min: 5% A, 95% B; 15-17 min (linear): 5% A, 95% B to 95% A, 5% B. Generation of ABA was quantified by the peak area of ABA out of the total peak area."}, "[5]": {"assay": "ABA-HP reactivity towards H2O2 (HPLC)", "assay_type": "physicochemical", "conditions": "1 mM + H2O2 (5 eq), 50% HEPES/DMSO, 37° C.", "procedure": "as §2"}}}
{"smiles": "CCN(CC)c1ccc2c(COC(=O)/C=C(C)\\C=C\\[C@@]3(O)C(C)=CC(=O)CC3(C)C)cc(=O)oc2c1", "note": "[ABA-DEACM]", "values": [{"measurement": "nuclear export of EGFP fusion proteins", "setting": "[1]", "value": "observed within a few minutes"}, {"measurement": "start of membrane ruffling after uncaging", "setting": "[2]", "value": 5, "unit": "min"}, {"measurement": "time to formation of fillopodia and lemellopodia", "setting": "[2]", "value": "≤ 15", "unit": "min"}, {"measurement": "time to formation of filopodia and lamellipodia", "setting": "[2]", "value": "≤ 15", "unit": "min"}]}
{"smiles": "CC1=CC(=O)CC(C)(C)[C@@]1(O)/C=C/C(C)=C\\C(=O)OCc1ccc(B2OC(C)(C)C(C)(C)O2)cc1", "note": "[ABA-HP]", "values": [{"measurement": "stability against other ROS, H2S, metal ions", "setting": "[3]; 100 μM ABA-HP, molecules at 100 μM, 37° C.", "value": "stable against all molecules tested at 100 μM"}, {"measurement": "effect of Cu^+ and Cu^2+", "setting": "[3]; Cu^+ and Cu^2+ at 10 μM", "value": "no effects"}, {"measurement": "cleavage by Cu^+ and Cu^2+", "setting": "[3]; Cu^+ and Cu^2+ at 100 μM", "value": "minimal amount of cleavage"}, {"measurement": "chemical stability in biological buffer", "setting": "[4]", "value": "stable in biological buffer at 37 °C throughout the 24-hour observation period"}, {"measurement": "completion of transformation to ABA", "setting": "[5]", "value": "completed in four hours"}, {"measurement": "start of conversion back to ABA", "setting": "[5]", "value": "within minutes"}]}
